Measured values taken from ChEMBL document CHEMBL5518168, “Tumor-homing peptide iRGD-conjugate enhances tumor accumulation of camptothecin for colon cancer therapy” (Eur J Med Chem, 2024).
Calls of active or inactive are those of the source. The rule behind the calls is not given here.

What was measured:
SW480 [1] = test: Antitumor activity against human SW480 cells xenografted in BALB/c mouse assessed as increase in body weight at 0.019 mg/kg, iv administered once every 2 days and measured after 12 days; assay type: functional, organism-based; details: time 12.0 day
SW480 [2] = test: Antitumor activity against human SW480 cells xenografted in BALB/c mouse assessed as tumor inhibition rate at 0.019 mg/kg, iv administered once every 2 days for 18 days; assay type: functional; design: scale not given: the % may be the effect or the level left; details: time 18 day
SW480 [3] = test: Antitumor activity against human SW480 cells xenografted in BALB/c mouse assessed as tumor burden at 0.019 mg/kg, iv administered once every 2 days for 18 days (reference value: 1.88%); assay type: functional; details: time 18 day
SW480 [4] = test: Antitumor activity against human SW480 cells xenografted in BALB/c mouse assessed as reduction in tumor volume at 0.019 mg/kg, iv administered once every 2 days and measured on day 18; assay type: functional; design: scale not given: the % may be the effect or the level left; details: time 18 day
[5] = Drug distribution in BALB/c mouse spleen xenografted with human A549 cells at 2.5 mg/kg, sc measured after 24 hrs by HPLC analysis; assay type: ADME, organism-based; details: in vivo
[6] = Drug distribution in BALB/c mouse heart xenografted with human A549 cells at 2.5 mg/kg, sc measured after 24 hrs by HPLC analysis; assay type: ADME, organism-based; details: in vivo
[7] = Drug distribution in BALB/c mouse lung xenografted with human A549 cells at 2.5 mg/kg, sc measured after 24 hrs by HPLC analysis; assay type: ADME, organism-based; details: in vivo
HT-29 [8] = test: Cytotoxicity against human HT-29 cells assessed as cell viability at 25 uM incubated for 48 hrs by MTT assay; assay type: functional; details: read-out: Activity
[9] = Drug distribution in BALB/c mouse lung xenografted with human A549 cells at 2.5 mg/kg, iv measured after 24 hrs by HPLC analysis; assay type: ADME, organism-based; details: in vivo
[10] = Drug distribution in BALB/c mouse heart xenografted with human A549 cells at 2.5 mg/kg, iv measured after 24 hrs by HPLC analysis; assay type: ADME, organism-based; details: in vivo
[11] = Drug distribution in BALB/c mouse spleen xenografted with human A549 cells at 2.5 mg/kg, iv measured after 24 hrs by HPLC analysis; assay type: ADME, organism-based; details: in vivo
SW480 [12] = test: Cytotoxicity against human SW480 cells assessed as reduction in cell viability incubated for 48 hrs by MTT assay; assay type: functional, cell-based; details: SW480, 48 h
SW480 [13] = test: Cytotoxicity against human SW480 cells assessed as cell viability at 25 uM incubated for 48 hrs by MTT assay; assay type: functional; details: read-out: Activity
HT-29 [14] = test: Cytotoxicity against human HT-29 cells assessed as reduction in cell viability incubated for 48 hrs by MTT assay; assay type: functional, cell-based; details: HT-29, 48 h
[15] = Drug distribution in BALB/c mouse tumor xenografted with human A549 cells at 22.23 mg/kg, sc measured after 24 hrs by HPLC analysis; assay type: ADME, organism-based, Neoplasm; details: in vivo
[16] = Drug distribution in BALB/c mouse heart xenografted with human A549 cells at 22.23 mg/kg, sc measured after 24 hrs by HPLC analysis; assay type: ADME, organism-based; details: in vivo
[17] = Drug distribution in BALB/c mouse heart xenografted with human A549 cells at 22.23 mg/kg, iv measured after 24 hrs by HPLC analysis; assay type: ADME, organism-based; details: in vivo
THP-1 = test: Cytotoxicity against human THP-1 cells assessed as reduction in cell viability incubated for 48 hrs by MTT assay; assay type: toxicity, cell-based; details: thp-1, 48 h
HT-29 [18] = test: Potency index, ratio of CPT IC50 to test compound IC50 for cytotoxicity against human HT-29 cells; assay type: functional
SW480 [19] = test: Antitumor activity against human SW480 cells xenografted in BALB/c mouse assessed as fold decrease in cell viability by measuring Ki67 positive cells at 0.1 mg/kg, iv administered once every 2 days for 18 days by immunohistochemical analysis relative to CPT; assay type: functional; details: time 18 day
HT-29 [20] = test: Cytotoxicity against human HT-29 cells assessed as reduction in cell viability at greater than 0.078 uM incubated for 48 hrs by MTT assay; assay type: functional, cell-based
SW480 [21] = test: Antitumor activity against human SW480 cells xenografted in BALB/c mouse assessed as tumor growth inhibition at 0.1 mg/kg, iv administered once every 2 days for 18 days; assay type: functional, organism-based; details: time 18.0 day
SW480 [22] = test: Potency index, ratio of CPT IC50 to test compound IC50 for cytotoxicity against human SW480 cells; assay type: functional
SW480 [23] = test: Antitumor activity against human SW480 cells xenografted in BALB/c mouse assessed as tumor burden at 0.1 mg/kg, iv administered once every 2 days for 18 days (reference value: 1.88%); assay type: functional; details: time 18 day
SW480 [24] = test: Antitumor activity against human SW480 cells xenografted in BALB/c mouse assessed as decrease in Ki67 expression at 0.1 mg/kg, iv administered once every 2 days for 18 days by immunohistochemical analysis; assay type: functional, organism-based; details: time 18.0 day
[25] = Drug uptake in human SW480 cells assessed as increase in blue fluorescence at 30 uM incubated for 1 hr by DRAQ5 staining based confocal microscopy analysis; assay type: ADME, cell-based; details: sw480, 1 h
SW480 [26] = test: Antitumor activity against human SW480 cells xenografted in BALB/c mouse assessed as tumor inhibition rate at 0.1 mg/kg, iv administered once every 2 days for 18 days; assay type: functional; design: scale not given: the % may be the effect or the level left; details: time 18 day
SW480 [27] = test: Antitumor activity against human SW480 cells xenografted in BALB/c mouse assessed as fold decrease in cell viability by measuring Ki67 positive cells at 0.1 mg/kg, iv administered once every 2 days for 18 days by immunohistochemical analysis relative to control; assay type: functional; details: time 18 day
[28] = Drug distribution in BALB/c mouse spleen xenografted with human A549 cells at 22.23 mg/kg, iv measured after 24 hrs by HPLC analysis; assay type: ADME, organism-based; details: in vivo
[29] = Stability in human plasma assessed as drug hydrolysis after 5 hrs by HPLC analysis; assay type: ADME, cell-free; details: read-out: Drug degradation
HT-29 [30] = test: Cytotoxicity against human HT-29 cells assessed as reduction in cell viability at 10 to 50 uM incubated for 48 hrs by MTT assay; assay type: functional, cell-based; details: dose 10-50 µM
SW480 [31] = test: Antitumor activity against human SW480 cells xenografted in BALB/c mouse assessed as reduction in tumor volume at 0.1 mg/kg, iv administered once every 2 days and measured on day 18; assay type: functional; design: scale not given: the % may be the effect or the level left; details: time 18 day
[32] = Drug distribution in BALB/c mouse lung xenografted with human A549 cells at 22.23 mg/kg, sc measured after 24 hrs by HPLC analysis; assay type: ADME, organism-based; details: in vivo
SW480 [33] = test: Antitumor activity against human SW480 cells xenografted in BALB/c mouse assessed as reduction in tumor volume at 0.1 mg/kg, iv administered once every 2 days and measured on day 8; assay type: functional, organism-based; details: time 8.0 day
[34] = Stability in human plasma assessed as drug hydrolysis after 15 mins by HPLC analysis; assay type: ADME, cell-free; details: read-out: Drug degradation
[35] = Drug distribution in BALB/c mouse tumor xenografted with human A549 cells at 22.23 mg/kg, iv measured after 24 hrs by HPLC analysis; assay type: ADME, organism-based, Neoplasm; details: in vivo
CCD-18Co = test: Cytotoxicity against human CCD-18Co cells assessed as reduction in cell viability incubated for 48 hrs by MTT assay; assay type: toxicity, cell-based
[36] = Stability in human plasma assessed as parent compound remaining after 18 hrs by HPLC analysis; assay type: ADME, cell-free; details: read-out: Stability
SW480 [37] = test: Antitumor activity against human SW480 cells xenografted in BALB/c mouse assessed as increase in body weight at 0.1 mg/kg, iv administered once every 2 days and measured after 12 days; assay type: functional, organism-based; details: time 12.0 day

## CC[C@@]1(O)C(=O)OCc2c1cc1n(c2=O)Cc2cc3ccccc3nc2-1 [CAMPTOTHECIN]
SW480 [1]
  Activity: inactive
SW480 [2]
  Activity: 56%
SW480 [3]
  Activity: 1.59%
SW480 [4]
  Activity: 6.8%
[5]
  Drug uptake: Active
[6]
  Drug uptake: Active
[7]
  Drug uptake: Active
HT-29 [8]
  viability at 25 µM: 32.4%
[9]
  Drug uptake: Active
[10]
  Drug uptake: Active
[11]
  Drug uptake: Active
SW480 [12]
  IC50: 8.56 µM
SW480 [13]
  viability at 25 µM: 29.5%
HT-29 [14]
  IC50: 2.35 µM

## CC[C@@]1(OC(=O)CCCOCCOCCONC(=O)CCN2C(=O)CC(SC[C@H](NC(C)=O)C(=O)N[C@H]3CSSC[C@@H](C(=O)O)NC(=O)[C@H](CC(=O)O)NC(=O)[C@@H]4CCCN4C(=O)CNC(=O)[C@H](CCCCN)NC(=O)[C@H](CC(=O)O)NC(=O)CNC(=O)[C@H](CCCNC(=N)N)NC3=O)C2=O)C(=O)OCc2c1cc1n(c2=O)Cc2cc3ccccc3nc2-1 (stereo partly drawn)
[15]
  Drug uptake: Active
[16]
  Drug uptake: Active
[17]
  Drug uptake: Active
THP-1
  Activity: Non-Toxic
HT-29 [18]
  Ratio IC50: 6.7
SW480 [19]
  fold change (FC): 6.4
HT-29 [20]
  Activity: Active
SW480 [21]
  Activity: Active
SW480 [22]
  Ratio IC50: 24
SW480 [23]
  Activity: 1.44%
SW480 [24]
  Activity: Active
HT-29 [8]
  viability at 25 µM: 16.3%
[25]
  Drug uptake: Active
SW480 [26]
  Activity: 75%
SW480 [27]
  fold change (FC): 10.5
[28]
  Drug uptake: Active
[29]
  metabolised at 5 h: 15.5%
HT-29 [30]
  Activity: Active
SW480 [31]
  Activity: 39.7%
[32]
  Drug uptake: Active
SW480 [33]
  Activity: Active
[34]
  metabolised at 0.25 h: 1.4%
[35]
  Drug uptake: Active
CCD-18Co
  Activity: Non-Toxic
[36]
  remaining at 18 h: 76.4%
SW480 [37]
  Activity: Active
SW480 [12]
  IC50: 0.32 µM
SW480 [13]
  viability at 25 µM: 22.3%
HT-29 [14]
  IC50: 0.35 µM
